Reference: patent publication US9212164B2, “Pesticidal compositions and processes related thereto” (Dow AgroSciences LLC, priority 2012, dated 2015)

Tests used:
Type in all cases: in vivo
[1] = test system: Beet Armyworm (BAW) (Spodoptera exigua); assay: Bioassays on BAW, 128-well diet tray assay; details: Spodoptera exigua, 168 h; 50 μg/cm^2 on artificial diet, second instar larvae, five to seven days, 25° C.; read-out: BAW Rating (percent mortality)
Protocol: (§1) Certain molecules disclosed in this document were tested against BAW, CEW and CL using procedures described in the following examples. In the reporting of the results, the “BAW & CEW & CL Rating Table” was used (See Table Section).
Bioassays on BAW (Spodoptera exigua)
Bioassays on BAW were conducted using a 128-well diet tray assay. One to five second instar BAW larvae were placed in each well (3 mL) of the diet tray that had been previously filled with 1 mL of artificial diet to which 50 μg/cm^2 of the test compound (dissolved in 50 μL of 90:10 acetone-water mixture) had been applied (to each of eight wells) and then allowed to dry. Trays were covered with a clear self-adhesive cover, and held at 25° C., 14:10 light-dark for five to seven days. Percent mortality was recorded for the larvae in each well; activity in the eight wells was then averaged. The results are indicated in the tables entitled “Table 3: Assay Results Part 1” and “Table 4: Assay Results Part 2” (See Table Section).

[2] = test system: Green Peach Aphid (GPA) (Myzus persicae); assay: Bioassays on Green Peach Aphid, foliar spray on cabbage seedlings; details: 200 ppm spray on cabbage seedlings, graded after three days
Excerpt: GPA is the most significant aphid pest of peach trees, causing decreased growth, shriveling of the leaves, and the death of various tissues. It is also hazardous because it acts as a vector for the transport of plant viruses, such as potato virus Y and potato leafroll virus to members of the nightshade/potato family Solanaceae, and various mosaic viruses to many other food crops. GPA attacks such plants as broccoli, burdock, cabbage, carrot, cauliflower, daikon, eggplant, green beans, lettuce, macadamia, papaya, peppers, sweet potatoes, tomatoes, watercress, and zucchini, among other plants. GPA also attacks many ornamental crops such as carnation, chrysanthemum, flowering white cabbage, poinsettia, and roses. GPA has developed resistance to many pesticides.
Certain molecules disclosed in this document were tested against GPA using procedures described in the following example. In the reporting of the results, the “GPA Rating Table” was used (See Table Section).
Cabbage seedlings grown in 3-inch pots, with 2-3 small (3-5 cm) true leaves, were used as test substrate. The seedlings were infested with 20-50 GPA (wingless adult and nymph stages) one day prior to chemical application. […] Percent Control was measured by using Abbott's correction formula (W. S. Abbott, “A Method of Computing the Effectiveness of an Insecticide” J. Econ. Entomol. 18 (1925), pp. 265-267) as follows. […]

[3] = test system: Cabbage Looper (CL) (Trichoplusia ni); assay: Bioassays on CL, 128-well diet tray assay; details: 168 h, 50 μg/cm^2 on artificial diet, second instar larvae, five to seven days, 25° C., read-out: CL Rating (percent mortality)
Protocol: as §1
Bioassays on CL (Trichoplusia ni)
Bioassays on CL were conducted using a 128-well diet tray assay. One to five second instar CL larvae were placed in each well (3 mL) of the diet tray that had been previously filled with 1 mL of artificial diet to which 50 μg/cm^2 of the test compound (dissolved in 50 μL of 90:10 acetone-water mixture) had been applied (to each of eight wells) and then allowed to dry. Trays were covered with a clear self-adhesive cover, and held at 25° C., 14:10 light-dark for five to seven days. Percent mortality was recorded for the larvae in each well; activity in the eight wells was then averaged. The results are indicated in the table entitled “Table 4: Assay Results Part 2” (See Table Section).

| Structure (SMILES) | mortality at 50 µg/cm2 [1] [%] | GPA Rating (corrected % control) [2] | mortality at 50 µg/cm2 [3] [%] |
| --- | --- | --- | --- |
| O=C(NC1(C(=O)NCC(F)(F)F)CCC1)c1ccc(/C=C/C(c2cc(Cl)c(Cl)c(Cl)c2)C(F)(F)F)cc1Br (stereo not shown) [Compound F5] | 50 to 100 | B (More than 0 - Less than 80) | 50 to 100 |
| O=C(NC1(C(=O)NCC(F)(F)F)CC1)c1ccc(/C=C/C(c2cc(Cl)c(Cl)c(Cl)c2)C(F)(F)F)cc1I (stereo not shown) [FA2] | 50 to 100 | B (More than 0 - Less than 80) | 50 to 100 |
| O=C(NC1(C(=O)NCc2ccccc2Cl)CC1)c1ccc(/C=C/C(c2cc(Cl)c(Cl)c(Cl)c2)C(F)(F)F)cc1Br (stereo not shown) [FA29] | 50 to 100 | – | 50 to 100 |
| CC(C)CNC(=O)C1(NC(=O)c2ccc(/C=C/C(c3cc(Cl)c(Cl)c(Cl)c3)C(F)(F)F)cc2Br)CC1 (stereo not shown) [FA30] | 50 to 100 | – | 50 to 100 |
| O=C(NC1(C(=O)NCC(F)F)CC1)c1ccc(/C=C/C(c2cc(Cl)c(Cl)c(Cl)c2)C(F)(F)F)cc1Br (stereo not shown) [FA32] | 50 to 100 | – | 50 to 100 |
| COc1ccc(CNC(=O)C2(NC(=O)c3ccc(/C=C/C(c4cc(Cl)c(Cl)c(Cl)c4)C(F)(F)F)cc3Br)CC2)cc1 (stereo not shown) [FA33] | 50 to 100 | – | 50 to 100 |
| O=C(NC1(C(=O)NCc2ccc(C(F)(F)F)cc2)CC1)c1ccc(/C=C/C(c2cc(Cl)c(Cl)c(Cl)c2)C(F)(F)F)cc1Br (stereo not shown) [FA34] | 50 to 100 | – | 50 to 100 |
| COc1cccc(CNC(=O)C2(NC(=O)c3ccc(/C=C/C(c4cc(Cl)c(Cl)c(Cl)c4)C(F)(F)F)cc3Br)CC2)c1 (stereo not shown) [FA35] | 50 to 100 | – | 50 to 100 |
| O=C(NC1(C(=O)Nc2ccc(C(F)(F)F)cc2)CC1)c1ccc(/C=C/C(c2cc(Cl)c(Cl)c(Cl)c2)C(F)(F)F)cc1Br (stereo not shown) [FA36] | 0 | – | 0 |
| O=C(NC1(C(=O)Nc2cccc(C(F)(F)F)c2)CC1)c1ccc(/C=C/C(c2cc(Cl)c(Cl)c(Cl)c2)C(F)(F)F)cc1Br (stereo not shown) [FA37] | 0 to 50 | – | 0 |
| O=C(NC1(C(=O)Nc2cccc(Cl)c2)CC1)c1ccc(/C=C/C(c2cc(Cl)c(Cl)c(Cl)c2)C(F)(F)F)cc1Br (stereo not shown) [FA38] | 0 to 50 | – | 0 to 50 |
| COc1ccccc1NC(=O)C1(NC(=O)c2ccc(/C=C/C(c3cc(Cl)c(Cl)c(Cl)c3)C(F)(F)F)cc2Br)CC1 (stereo not shown) [FA39] | 0 | – | 0 |
| COc1ccc(NC(=O)C2(NC(=O)c3ccc(/C=C/C(c4cc(Cl)c(Cl)c(Cl)c4)C(F)(F)F)cc3Br)CC2)cc1 (stereo not shown) [FA40] | 50 to 100 | – | 50 to 100 |
| COc1ccc(N(C)C(=O)C2(NC(=O)c3ccc(/C=C/C(c4cc(Cl)c(Cl)c(Cl)c4)C(F)(F)F)cc3Br)CC2)cc1 (stereo not shown) [FA41] | 50 to 100 | – | 50 to 100 |
| CCCN(C)C(=O)C1(NC(=O)c2ccc(/C=C/C(c3cc(Cl)c(Cl)c(Cl)c3)C(F)(F)F)cc2Br)CC1 (stereo not shown) [FA42] | 50 to 100 | – | 50 to 100 |
| COCCN(C)C(=O)C1(NC(=O)c2ccc(/C=C/C(c3cc(Cl)c(Cl)c(Cl)c3)C(F)(F)F)cc2Br)CC1 (stereo not shown) [FA43] | 50 to 100 | – | 50 to 100 |
| CN(Cc1ccc(Br)cc1)C(=O)C1(NC(=O)c2ccc(/C=C/C(c3cc(Cl)c(Cl)c(Cl)c3)C(F)(F)F)cc2Br)CC1 (stereo not shown) [FA44] | 50 to 100 | – | 50 to 100 |
| CCN(Cc1ccccc1)C(=O)C1(NC(=O)c2ccc(/C=C/C(c3cc(Cl)c(Cl)c(Cl)c3)C(F)(F)F)cc2Br)CC1 (stereo not shown) [FA45] | 50 to 100 | – | 50 to 100 |
| COc1ccccc1CN(C)C(=O)C1(NC(=O)c2ccc(/C=C/C(c3cc(Cl)c(Cl)c(Cl)c3)C(F)(F)F)cc2Br)CC1 (stereo not shown) [FA46] | 0 to 50 | – | 50 to 100 |
| O=C(NC1(C(=O)NC2CCCOC2)CC1)c1ccc(/C=C/C(c2cc(Cl)c(Cl)c(Cl)c2)C(F)(F)F)cc1Br (stereo not shown) [FA47] | 50 to 100 | – | 50 to 100 |
| Cn1nc(C(F)(F)F)cc1NC(=O)C1(NC(=O)c2ccc(/C=C/C(c3cc(Cl)c(Cl)c(Cl)c3)C(F)(F)F)cc2Br)CC1 (stereo not shown) [FA48] | 50 to 100 | – | 50 to 100 |
| CON(CC(F)(F)F)C(=O)C1(NC(=O)c2ccc(/C=C/C(c3cc(Cl)c(Cl)c(Cl)c3)C(F)(F)F)cc2C(F)(F)F)CC1 (stereo not shown) [FA49, (E)-N-(1-(Methoxy(2,2,2-trifluoroethyl)carbamoyl)cyclopropyl)-4-(4,4,4-trifluoro-3-(3,4,5-trichlorophenyl)but-1-en-1-yl)-2-(trifluoromethyl)benzamide] | 50 to 100 | – | 50 to 100 |
